In this test the target is endothelin converting enzyme (ECE) (Sus scrofa, UniProt F1SU04). Kind of test: "ECE" assay with porcine aortic "ECE" prep, fluorogenic substrate Suc-Ile-Ile-Trp-MCA. Type of test: biochemical. The method, then: IC50 values were determined as follows:
Porcine Aortic "ECE" Prep
Porcine aortas (22-25) were obtained fresh from a local slaughterhouse and delivered in cold PBS on ice. The aortas were cut open, rinsed with cold PBS and the endothelial cell layer scraped into cold PBS using a scalpel. The endothelial cells were pelleted by centrifugation, rinsed once with cold PBS, and repelleted. The pellet was lysed by addition of 10 volumes of 10 mM Tris-HCl, pH 7.0, containing protease inhibitors and DTS, followed by brief sonication and homogenization. The lysate was centrifuged at 100,000 g for 1 hour and the supernatant applied to a MONOQ FPLC anion exchange column equilibrated in 10 mM Tris-HCl, pH 7.0 (buffer A) which was then developed with an increasing gradient of NaCl in buffer A. The active fractions were aliquoted and stored at -70° C.
The ECE assay was performed in 96-well microplates in a total volume of 200μ/well. The assay cocktail contains 100 mM Tris-HCl, pH 7.0, 20 mM CaCl2, 80 μM substrate (Suc-Ile-Ile-Trp-MCA), enzyme and test compounds. The test compounds were preincubated with the enzyme for 15-20 minutes before initiation of the assay by addition of the substrate. The assay was incubated overnight at 37° C. and the fluorescence intensity caused by the release of AMC was determined using a fluorescence microplate reader (EX360 nm/EM460 nm). IC50 values for compounds were determined by constructing concentration-effect curves for the inhibition of enzyme activity. Concentrations on the linear portion of the inhibition curve were used to determine the IC50 utilizing a Hill plot.

The mark [1] stands for this setting: porcine aortic endothelial cell ECE prep, 80 μM Suc-Ile-Ile-Trp-MCA, 15-20 min preincubation, overnight at 37° C., pH 7.0, AMC fluorescence.

From patent US6235717A, “Pharmaceutical compounds” (Glaxo Wellcome Inc., priority 1993, dated 2001) come the findings set out here.

Broadly, the IC50 is the concentration at which inhibition is half-maximal. A lower IC50 goes with greater potency in that assay.

Starred links: 1 amine or outer side, 2 acyl side, 3 side chain; linkers in the order of their positions; H or OH if unused. Non-standard residues stand in square brackets, D forms with d. Residues, ends and D or L forms follow the SMILES beside them. ξ: configuration not given here. *: point of attachment. Phe(4-Br) = N[CH](Cc1ccc(Br)cc1)C(=O)O; Phe(4-Cl) = N[C@@H](Cc1ccc(Cl)cc1)C(=O)O; 1Nal = N[C@@H](Cc1cccc2ccccc12)C(=O)O; Bta = N[C@@H](Cc1csc2ccccc12)C(=O)O; ξW = NC(Cc1c[nH]c2ccccc12)C(=O)O; Cha = N[CH](CC1CCCCC1)C(=O)O; Suc = O=C(CCC(=O)[*:2])[*:1]; Cbz = O=C(OCc1ccccc1)*; Ahx = NCCCCCC(=O)O; Bn = c1ccc(C*)cc1

endothelin converting enzyme (ECE), sequence (F1SU04 entry or part of it): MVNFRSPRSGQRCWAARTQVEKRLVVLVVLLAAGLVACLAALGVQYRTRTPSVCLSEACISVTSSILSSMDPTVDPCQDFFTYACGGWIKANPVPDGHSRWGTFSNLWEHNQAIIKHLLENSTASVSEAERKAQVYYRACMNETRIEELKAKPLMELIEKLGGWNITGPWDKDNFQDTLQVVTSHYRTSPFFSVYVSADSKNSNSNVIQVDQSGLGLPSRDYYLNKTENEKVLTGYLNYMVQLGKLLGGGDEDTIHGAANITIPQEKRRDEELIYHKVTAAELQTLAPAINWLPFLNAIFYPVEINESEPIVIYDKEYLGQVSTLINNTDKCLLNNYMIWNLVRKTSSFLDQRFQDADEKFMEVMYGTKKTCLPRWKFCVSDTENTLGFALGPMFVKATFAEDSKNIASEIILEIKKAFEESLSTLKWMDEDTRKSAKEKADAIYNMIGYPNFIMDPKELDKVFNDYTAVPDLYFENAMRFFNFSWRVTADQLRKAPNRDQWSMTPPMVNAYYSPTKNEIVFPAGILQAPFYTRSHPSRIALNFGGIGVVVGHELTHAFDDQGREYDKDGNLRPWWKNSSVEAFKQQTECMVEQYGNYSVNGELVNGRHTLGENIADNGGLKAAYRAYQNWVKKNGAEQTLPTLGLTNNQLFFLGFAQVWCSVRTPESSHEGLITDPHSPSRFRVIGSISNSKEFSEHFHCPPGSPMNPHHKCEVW

For `O=C[C@H](Cc1c[nH]c2ccccc12)NC(=O)[C@H](Cc1cccc2ccccc12)NC(=O)[C@H](Cc1ccc(Br)cc1)NC(=O)OCc1ccccc1` [Example 37, N-Benzyloxycarbonyl-S-p-bromophenylalanyl-S-1'naphthylalanyl-1-S-formyl-1-(1H-indol-3-yl-methyl)-methylamide] (Cbz-[Phe(4-Br)]-[1Nal]-Trp-aldehyde), half-maximal inhibition (pH 7) (IC50) required 7 nM.

Compound “N-Benzyloxycarbonyl-S-p-bromophenylalanyl-S-2'naphthylalanyl-1-S-formyl-1-(1H-indol-3-yl-methyl)-methylamide [Example 38]” had a half-inhibitory concentration (IC50) under setting [1] of 8 nM.

As for “N-Benzyloxycarbonyl-L-isoleucyl-L-isoleucine-L-N-[1-formylhydroxymethyl-2-(phenylethyl]amide) [Example 47]”, the midpoint of inhibition under setting [1], the IC50, lay at 5000 nM.

Under setting [1], “N-Benzyloxycarbonyl-S-tryptophanyl-S-2'naphthylalanyl-1-S-formyl-1-(1H-indol-3-yl-methyl)-methylamide [Example 35]” yielded an IC50 of 30 nM.

With `O=C[C@H](Cc1c[nH]c2ccccc12)NC(=O)[C@H](Cc1ccc(OCc2ccccc2)cc1)NC(=O)[C@H](Cc1ccc(Br)cc1)NC(=O)OCc1ccccc1` [Example 19, N-Benzyloxycarbonyl-S-p-bromophenylalnyl-S-(O-benzyl)tyrosyl-1-S-formyl-1-(1H-indol-3-yl-methyl)-methylamide] (Cbz-[Phe(4-Br)]-Tyr(Bn)-Trp-aldehyde), under setting [1], the IC50 was 10 nM.

Compound `CC[C@H](C)[C@H](NC(C)=O)C(=O)N[C@H](C(=O)NC(C=O)Cc1c[nH]c2ccccc12)[C@@H](C)CC` (stereo partly drawn) [Example 60] (Ac-Ile-Ile-[ξW]-aldehyde) displayed a half-inhibitory concentration (IC50) under setting [1] of 1000 nM.

Under setting [1], `CC[C@H](C)[C@H](NC(=O)[C@@H](NC(=O)OCc1ccccc1)C(C)C)C(=O)NC(C=O)Cc1c[nH]c2ccccc12` (stereo partly drawn) [Example 24] (Cbz-Val-Ile-[ξW]-aldehyde) returned an IC50 of 1500 nM.

Under setting [1], `O=CC(Cc1c[nH]c2ccccc12)NC(=O)[C@H](Cc1cccc2ccccc12)NC(=O)[C@H](Cc1ccc(Br)cc1)NC(=O)CCCCC1SCC2NC(=O)NC21` (stereo partly drawn) [Example 93, N-[[5-(hexahydro-2-oxo-1H-thieno[3,4-d]imidazol-4-yl)pentanoyl]-L-p-bromophenylalanyl-L-1-naphthylalanyl-L-N-[1-formyl]2-(1H-indol-3-yl)ethyl]amide] gave an IC50 of 2 nM.

Take “N-Benzyloxycarbonyl-L-isoleucyl-L-isoleucine-L-N-[1pyruvoyl]2-(phenyl)ethyl]amide [Example 52]”: under setting [1], inhibition was half-maximal at 2000 nM (IC50).

Compound `COC(OC)C(Cc1c[nH]c2ccccc12)NC(=O)[C@H](Cc1c[nH]c2ccccc12)NC(=O)[C@H](Cc1c[nH]c2ccccc12)NC(=O)CCCCCNC(=O)CCCCC1SCC2NC(=O)NC21` (stereo partly drawn) [Example 78, N-[[[5-(hexahydro-2-oxo-1H-thieno[3,4-d]imidazol-4-yl)valeramido]hexanoyl]-L-trytophanyl-L-tryptophan-L-N-[1-dimethoxymethyl]2-(1H-indol-3-yl)ethyl]amide] showed an IC50 under setting [1] of 10000 nM.

`O=CC(Cc1c[nH]c2ccccc12)NC(=O)C(Cc1ccccc1)NC(=O)C(Cc1ccccc1)NC(=O)OCc1ccccc1` (stereo not drawn) [Example 32, N-Benzyloxycarbonyl-S-phenylalanyl-S-phenylalanyl-1-S-formyl-1-(1H-indol-3-yl-methyl)-methylamide] (Cbz-Phe-Phe-Trp-aldehyde; configuration not given here) registered an IC50 under setting [1] of 100 nM.

Under setting [1], `CC[C@H](C)[C@H](NC(=O)CC(c1ccccc1)c1ccccc1)C(=O)N[C@H](C(=O)NC(C=O)Cc1c[nH]c2ccccc12)[C@@H](C)CC` (stereo partly shown) [Example 58] yielded an IC50 of 100 nM.

`CC[C@H](C)[C@H](NC(=O)OCc1ccccc1)C(=O)N[C@H](C(=O)NC(Cc1ccccc1)C(=O)C(=O)O)[C@@H](C)CC` (stereo partly shown) [Example 88] came in with an IC50 under setting [1] of 600 nM.

Consider `CCC(C)C(C=O)NC(=O)C(NC(=O)C(NC(=O)OCc1ccccc1)C(C)CC)C(C)CC` [Example 22, N-Benzyloxycarbonyl-S-isoleucyl-S-isoleucyl-1-S-formyl-1-(S)-1-methylpropyl)-methylamide] (Cbz-Ile-Ile-Ile-aldehyde; configuration not given here), for which half-maximal inhibition under setting [1] (IC50) was put at 4000 nM.

Under setting [1], `O=C[C@H](Cc1ccc(Cl)cc1)NC(=O)[C@H](Cc1ccc(OCc2ccccc2)cc1)NC(=O)[C@H](Cc1cccc2ccccc12)NC(=O)OCc1ccccc1` [Example 39, N-Benzyloxycarbonyl-S-1'naphthylalanyl-S-(O-benzyl)tyrosyl-1-S-formyl-1-(4-chlorophenylmethyl)-methyloamide] (Cbz-[1Nal]-Tyr(Bn)-[Phe(4-Cl)]-aldehyde) displayed an IC50 of 15 nM.

Under setting [1], `O=CC(Cc1ccc(Br)cc1)NC(=O)C(Cc1ccc(OCc2ccccc2)cc1)NC(=O)C(CC1CCCCC1)NC(=O)OCc1ccccc1` (stereo not drawn) [Example 97, N-Benzyloxycarbonyl-S-cyclohexylalanyl-S-(O-benzyl)tyrosyl-1-S-formyl-1-(4-bromophenylmethyl)-methylamide] (Cbz-[Cha]-Tyr(Bn)-[Phe(4-Br)]-aldehyde; configuration not given here) came in with an IC50 of 10000 nM.

For the compound “N-[benzyloxy)carbonyl]-L-aspart-1-yl]-L-isoleucyl-L-isoleucine-L-N-[1-formyl]2-(1H-indol-3-yl)ethyl]amide [Example 65]”, half-maximal inhibition under setting [1] (IC50) was put at 100 nM.

The compound `CC[C@H](C)[C@H](NC(=O)CCC(=O)O)C(=O)N[C@H](C(=O)N[C@H](C=O)Cc1c[nH]c2ccccc12)[C@@H](C)CC` [Example 61] (Suc-Ile-Ile-Trp-aldehyde) showed an IC50 under setting [1] of 800 nM.

On to `CC[C@H](C)[C@H](NC(=O)CCCCCNC(=O)CCCCCNC(=O)OCc1ccccc1)C(=O)N[C@H](C(=O)N[C@@H](Cc1c[nH]c2ccccc12)C(OC)OC)[C@@H](C)CC` [Example 68], for which, under setting [1], half-maximal inhibition (IC50) was put at 5000 nM.

In turn, `CCOc1ccc(C[C@H](NC(=O)OCc2ccccc2)C(=O)N[C@@H](Cc2ccc(OCc3ccccc3)cc2)C(=O)N[C@H](C=O)Cc2ccc(Br)cc2)cc1` [Example 100, N-Benzyloxycarbonyl-S-(O-ethyl)tyrosyl-S-(O-benzyl)tyrosyl-1-S-formyl-1-(4-bromophenylmethyl)-methylamide] (Cbz-Tyr(Et)-Tyr(Bn)-[Phe(4-Br)]-aldehyde) had an IC50 under setting [1] of 60 nM.

`CC[C@H](C)[C@H](NC(=O)OCc1ccccc1)C(=O)N[C@H](C(=O)N[C@H](C=O)Cc1csc2ccccc12)[C@@H](C)CC` [Example 18, N-Benzyloxycarbonyl-S-isoleucyl-S-isoleucine 1-S-formyl-2-(benzo-thien-3-yl)ethylamide] (Cbz-Ile-Ile-[Bta]-aldehyde): the IC50 under setting [1] amounted to 600 nM.

For the compound `CCC(C)C(NC(=O)OCc1ccccc1)C(=O)NC(Cc1ccccc1)C(=O)NC(C=O)Cc1c[nH]c2ccccc12` (stereo not drawn) [Example 27, N-Benzyloxycarbonyl-S-isoleucyl-S-phenylalanyl-1-S-formyl-1-(1H-indol-3-yl-methyl)-methylamide] (Cbz-Ile-Phe-Trp-aldehyde; configuration not given here), under setting [1], it took 500 nM to reach half-maximal inhibition (IC50).

The compound `CCC(C)C(NC(=O)C(CC(C)C)NC(=O)OCc1ccccc1)C(=O)NC(C=O)Cc1c[nH]c2ccccc12` (stereo not drawn) [Example 28] (Cbz-Leu-Ile-Trp-aldehyde; configuration not given here) yielded a 50% inhibitory concentration (IC50) under setting [1] of 200 nM.

Under setting [1], `CC[C@H](C)[C@H](NC(=O)CCCCCNC(=O)OCc1ccccc1)C(=O)N[C@H](C(=O)N[C@H](C=O)Cc1c[nH]c2ccccc12)[C@@H](C)CC` [Example 71] ({Cbz-Ahx}-Ile-Ile-Trp-aldehyde) came in with a 50% inhibitory concentration (IC50) of 40 nM.

`CC[C@@H](C)[C@@H](NC(=O)OCc1ccccc1)C(=O)N[C@H](C(=O)N[C@H](C=O)Cc1c[nH]c2ccccc12)[C@@H](C)CC` [Example 77, N-Benzyloxycarbonyl-R-isoleucyl-S-isoleucine-1-S--formyl-2-(1H--indol-3-yl)-ethylamide] (Cbz-[dI]-Ile-Trp-aldehyde) showed an IC50 under setting [1] of 1000 nM.

In turn, `CC[C@H](C)[C@H](NC(=O)CCCCCNC(=O)CCCCC1SCC2NC(=O)NC21)C(=O)N[C@H](C(=O)NC(Cc1c[nH]c2ccccc12)C(OC)OC)[C@@H](C)CC` (stereo partly drawn) [Example 66, N-[[[5-(hexahydro-2-oxo-1H-thieno[3,4-d]imidazol-4-yl)valeramido]hexanoyl]-L-isoleucyl-L-isoleucine-L-N-[1-dimethoxymethyl]2-(1H-indol-3-yl)ethyl]amide] displayed an IC50 under setting [1] of 300 nM.

Under setting [1], `O=CC(Cc1c[nH]c2ccccc12)NC(=O)[C@H](Cc1cccc2ccccc12)NC(=O)[C@H](Cc1c[nH]c2ccccc12)NC(=O)OCc1ccccc1` (stereo partly drawn) [Example 34, N-Benzyloxycarbonyl-S-tryptophanyl-S-1'naphthylalanyl-1-S-formyl-1-(1H-indol-3-yl-methyl)-methylamide] (Cbz-Trp-[1Nal]-[ξW]-aldehyde) yielded an IC50 of 8 nM.

`C#CC(=O)C(Cc1c[nH]c2ccccc12)NC(=O)[C@@H](NC(=O)[C@@H](NC(=O)OCc1ccccc1)[C@@H](C)CC)[C@@H](C)CC` (stereo partly drawn) [Example 49, N-Benzyloxycarbonyl-L-isoleucyl-L-isoleucine-L_N-[1[2-propynoyl]2-(1H-indol-3-yl)ethyl]amide] had an IC50 under setting [1] of 10000 nM.
